Source: the CheMixHub drug solubility set

Assay: xn = mol fraction of the nth substance listed, in the solute-free solvent

CC(N)C(=O)O (stereo unspecified) + O + CC(C)O
solubility (g/100 g solution)
Settings	x2 = 0.1	x2 = 0.2	x2 = 0.3	x2 = 0.4	x2 = 0.5	x2 = 0.6	x2 = 0.7	x2 = 0.8	x2 = 0.9
283.15 K	0.0186	0.0381	0.0478	0.104	0.185	0.376	0.772	1.58	3.5
293.15 K	0.0303	0.046	0.0604	0.124	0.223	0.459	1.01	2.08	4.48
303.15 K	0.0379	0.0557	0.0726	0.143	0.267	0.552	1.25	2.62	5.51
313.15 K	0.0427	0.0643	0.0784	0.158	0.316	0.704	1.55	3.3	6.91
323.15 K	0.0448	0.0801	0.113	0.167	0.372	0.842	1.85	4.04	8.23

Cc1ncc(C[n+]2csc(CCO)c2C)c(N)n1.O=[N+]([O-])[O-] + O + CC(C)O
solubility (g/100 g solution)
Settings	278.15 K	283.15 K	288.15 K	293.15 K	298.15 K	303.15 K	308.15 K	313.15 K
x2 = 0.3	0.0345	0.0413	0.051	0.06	0.0744	0.093	0.115	0.151
x2 = 0.4	0.0937	0.119	0.15	0.172	0.199	0.243	0.297	0.385
x2 = 0.5	0.228	0.257	0.305	0.372	0.453	0.573	0.715	0.897
x2 = 0.6	0.364	0.439	0.552	0.705	0.814	1.01	1.28	1.57
x2 = 0.7	0.637	0.765	0.916	1.12	1.38	1.71	2.11	2.61
x2 = 0.8	0.968	1.15	1.39	1.74	2.15	2.63	3.14	3.84
x2 = 0.9	1.18	1.47	1.83	2.33	2.85	3.48	4.26	5.2
